Tested on: 354836-022-R-J1-PDC multicell spheroid viability
Assay: Anticancer human tumor 354836-022-R-J1-PDC patient-derived head and neck squamous cell carcinoma cell line growth inhibition [PI3K]
Conditions: for IC50: curve of first compound; for viability, T/C: stronger effect = lower value; active = viability on the fitted dose curve at most 10% of control; inactive = the rest
Method in brief: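 Agents were dosed from a top concentration near clinical Cmax (otherwise 10 microM) in half-log decrements, alone or combined with PI3K inhibitors. The spheroids contain tumor cells plus endothelial (HUVEC) and MSC stroma; viability is measured.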

[1] = second compound 0.0316 µM, first compound 0.0316 µM
[2] = second compound 0.0316 µM, first compound 0.1 µM
[3] = second compound 0.0316 µM, first compound 0.316 µM
[4] = second compound 0.0316 µM, first compound 1 µM
[5] = second compound 0.0316 µM, first compound 3.16 µM
[6] = second compound 0.0316 µM, first compound 10 µM
[7] = second compound 0.1 µM, first compound 0.0316 µM
[8] = second compound 0.1 µM, first compound 0.1 µM
[9] = second compound 0.1 µM, first compound 0.316 µM
[10] = second compound 0.1 µM, first compound 1 µM
[11] = second compound 0.1 µM, first compound 3.16 µM
[12] = second compound 0.1 µM, first compound 10 µM
[13] = second compound 0.316 µM, first compound 0.0316 µM
[14] = second compound 0.316 µM, first compound 0.1 µM
[15] = second compound 0.316 µM, first compound 0.316 µM
[16] = second compound 0.316 µM, first compound 1 µM
[17] = second compound 0.316 µM, first compound 3.16 µM
[18] = second compound 0.316 µM, first compound 10 µM
[19] = second compound 1 µM, first compound 0.0316 µM
[20] = second compound 1 µM, first compound 0.1 µM
[21] = second compound 1 µM, first compound 0.316 µM
[22] = second compound 1 µM, first compound 1 µM
[23] = second compound 1 µM, first compound 3.16 µM
[24] = second compound 1 µM, first compound 10 µM
[25] = second compound 3.16 µM, first compound 0.0316 µM
[26] = second compound 3.16 µM, first compound 0.1 µM
[27] = second compound 3.16 µM, first compound 0.316 µM
[28] = second compound 3.16 µM, first compound 1 µM
[29] = second compound 3.16 µM, first compound 3.16 µM
[30] = second compound 3.16 µM, first compound 10 µM
[31] = second compound 10 µM, first compound 0.0316 µM
[32] = second compound 10 µM, first compound 0.1 µM
[33] = second compound 10 µM, first compound 0.316 µM
[34] = second compound 10 µM, first compound 1 µM
[35] = second compound 10 µM, first compound 3.16 µM
[36] = second compound 10 µM, first compound 10 µM
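Also: spheroids exposed to agents for seven days before the viability read.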

C=CC(=O)N1CCN(c2nc(=O)n(-c3c(C)ccnc3C(C)C)c3nc(-c4c(O)cccc4F)c(F)cc23)C(C)C1 (stereo not drawn) + CC(Nc1ncnc2nc[nH]c12)c1cc2cccc(Cl)c2c(=O)n1-c1ccccc1
inactive: viability, T/C [1] 93.1% | viability, T/C [2] 84.5% | viability, T/C [3] 103% | viability, T/C [4] 103% | viability, T/C [5] 98.7% | viability, T/C [6] 94.1% | viability, T/C [7] 98.7% | viability, T/C [8] 94.5% | viability, T/C [9] 96.4% | viability, T/C [10] 115% | viability, T/C [11] 108% | viability, T/C [12] 95.5% | viability, T/C [13] 110% | viability, T/C [14] 106% | viability, T/C [15] 103% | viability, T/C [16] 116% | viability, T/C [17] 106% | viability, T/C [18] 88.1% | viability, T/C [19] 103% | viability, T/C [20] 98.4% | viability, T/C [21] 108% | viability, T/C [22] 102% | viability, T/C [23] 98.7% | viability, T/C [24] 97.7% | viability, T/C [25] 96% | viability, T/C [26] 114% | viability, T/C [27] 106% | viability, T/C [28] 115% | viability, T/C [29] 115% | viability, T/C [30] 93.2% | viability, T/C [31] 98% | viability, T/C [32] 89.4% | viability, T/C [33] 90.1% | viability, T/C [34] 99.2% | viability, T/C [35] 102% | viability, T/C [36] 88.1%
> 10 µM: IC50 (second compound 0.0316 µM) | IC50 (second compound 0.1 µM) | IC50 (second compound 0.316 µM) | IC50 (second compound 1 µM) | IC50 (second compound 3.16 µM) | IC50 (second compound 10 µM)

CC(Cn1ccc(-c2ccc(C#N)c(Cl)c2)n1)NC(=O)c1cc(C(C)O)[nH]n1 (stereo not drawn) + CC(Nc1ncnc2nc[nH]c12)c1cc2cccc(Cl)c2c(=O)n1-c1ccccc1
> 10 µM: IC50 (second compound 0.0316 µM) | IC50 (second compound 0.1 µM) | IC50 (second compound 0.316 µM) | IC50 (second compound 1 µM) | IC50 (second compound 3.16 µM) | IC50 (second compound 10 µM)
inactive: viability, T/C [1] 99.3% | viability, T/C [2] 91.8% | viability, T/C [3] 96.6% | viability, T/C [4] 112% | viability, T/C [5] 97.7% | viability, T/C [6] 84.4% | viability, T/C [7] 87.8% | viability, T/C [8] 102% | viability, T/C [9] 89.6% | viability, T/C [10] 104% | viability, T/C [11] 85% | viability, T/C [12] 93.3% | viability, T/C [13] 91.2% | viability, T/C [14] 90.6% | viability, T/C [15] 97.6% | viability, T/C [16] 87.9% | viability, T/C [17] 101% | viability, T/C [18] 89.1% | viability, T/C [19] 106% | viability, T/C [20] 91.4% | viability, T/C [21] 93.1% | viability, T/C [22] 108% | viability, T/C [23] 83.5% | viability, T/C [24] 78.8% | viability, T/C [25] 113% | viability, T/C [26] 96.8% | viability, T/C [27] 95% | viability, T/C [28] 97.2% | viability, T/C [29] 90.7% | viability, T/C [30] 83.7% | viability, T/C [31] 96.5% | viability, T/C [32] 93.2% | viability, T/C [33] 83.8% | viability, T/C [34] 96.9% | viability, T/C [35] 95.2% | viability, T/C [36] 75.7%

Cn1ncc(Cl)c1-c1cc(C(=O)NC(CN)Cc2cccc(F)c2)sc1Cl (stereo not drawn) + CC(Nc1ncnc2nc[nH]c12)c1cc2cccc(Cl)c2c(=O)n1-c1ccccc1
active: viability, T/C [5] 5.4% | viability, T/C [6] 1.88% | viability, T/C [11] 5.21% | viability, T/C [12] 1.62% | viability, T/C [17] 5.75% | viability, T/C [18] 1.5% | viability, T/C [23] 5.53% | viability, T/C [24] 1.8% | viability, T/C [29] 7.18% | viability, T/C [30] 2.1% | viability, T/C [35] 8.1% | viability, T/C [36] 2.22%
0.162 µM: IC50 (second compound 1 µM)
0.168 µM: IC50 (second compound 0.1 µM)
inactive: viability, T/C [1] 74.6% | viability, T/C [2] 48.9% | viability, T/C [3] 31.8% | viability, T/C [4] 15.1% | viability, T/C [7] 70.7% | viability, T/C [8] 61.4% | viability, T/C [9] 36.3% | viability, T/C [10] 17.7% | viability, T/C [13] 74.1% | viability, T/C [14] 52.5% | viability, T/C [15] 30.3% | viability, T/C [16] 17.8% | viability, T/C [19] 65.6% | viability, T/C [20] 67% | viability, T/C [21] 29.6% | viability, T/C [22] 19.3% | viability, T/C [25] 75.6% | viability, T/C [26] 68.1% | viability, T/C [27] 39.5% | viability, T/C [28] 20.9% | viability, T/C [31] 70.8% | viability, T/C [32] 59.7% | viability, T/C [33] 31.8% | viability, T/C [34] 18.9%
0.145 µM: IC50 (second compound 10 µM)
0.215 µM: IC50 (second compound 3.16 µM)
0.1 µM: IC50 (second compound 0.0316 µM)
0.112 µM: IC50 (second compound 0.316 µM)

Cn1nccc1Nc1nccc(-c2ccn(C(CO)c3ccc(Cl)c(F)c3)c(=O)c2)n1 (stereo not drawn) + CC(Nc1ncnc2nc[nH]c12)c1cc2cccc(Cl)c2c(=O)n1-c1ccccc1
inactive: viability, T/C [1] 107% | viability, T/C [2] 107% | viability, T/C [3] 103% | viability, T/C [4] 94.9% | viability, T/C [5] 89.3% | viability, T/C [6] 90.5% | viability, T/C [7] 108% | viability, T/C [8] 110% | viability, T/C [9] 94.3% | viability, T/C [10] 104% | viability, T/C [11] 91.2% | viability, T/C [12] 96.4% | viability, T/C [13] 113% | viability, T/C [14] 93.5% | viability, T/C [15] 87.2% | viability, T/C [16] 106% | viability, T/C [17] 100% | viability, T/C [18] 94.9% | viability, T/C [19] 117% | viability, T/C [20] 95.5% | viability, T/C [21] 111% | viability, T/C [22] 118% | viability, T/C [23] 101% | viability, T/C [24] 78.2% | viability, T/C [25] 94.4% | viability, T/C [26] 91.6% | viability, T/C [27] 99.3% | viability, T/C [28] 97.3% | viability, T/C [29] 107% | viability, T/C [30] 88.1% | viability, T/C [31] 88.3% | viability, T/C [32] 103% | viability, T/C [33] 95.3% | viability, T/C [34] 85.4% | viability, T/C [35] 94% | viability, T/C [36] 76.1%
> 10 µM: IC50 (second compound 0.0316 µM) | IC50 (second compound 0.1 µM) | IC50 (second compound 0.316 µM) | IC50 (second compound 1 µM) | IC50 (second compound 3.16 µM) | IC50 (second compound 10 µM)
